According to patent publication US12043652B2, “Engineered extracellular receptor constructs and uses thereof” (TRUSTEES OF BOSTON UNIVERSITY, priority 2020, dated 2024):
Entries after “also recorded” stand apart in the source; their conditions may differ.

How the values were obtained:
Assay type in all cases: cell-based
[1] = molecular target: T1, catalytically inactive NS3 protease (NS3^S139A, dNS3) sensor (Hepatitis C virus genotype 1a, UniProt P27958, S1165A); settings: drug grazoprevir; histograms of H2B-mCherry, flow cytometry, 48 hours post-drug addition
T1 construct: transmembrane domain with γ-secretase cleavage site (TMD) (internal); Gal4-VP64 intracellular domain (C); expressed in transfected cells
Experimental: FIGS. 2A-2B. (FIG. 2A) Schematic of antiviral drug sensor which is designed to sense Hepatitis C Virus NS3 inhibitors. (FIG. 2B) Two sensors with varying sensitivity to antiviral drug based on the affinity of their intramolecular peptide. Activity of the sensor is shown as histograms of intracellular domain driven H2B-mCherry expression in clonal cell lines, measured by flow cytometry, 48 hours post-drug addition. […] Red arrows are drawn to highlight differences in sensitivity to ligand. Drug is grazoprevir or delivery vehicle control, DMSO.
(§1) Upon addition of inducer and either gamma secretase inhibitor, H2B-mCherry signal is ablated. Images are taken 24 hours after transfection and drug addition. A fluorescent transfection marker is shown as a smaller corresponding image. […] Scale bar 50 μm.
For proof of concept, the ICD chosen was a synthetic transcription factor, Gal4-VP64, which activates UAS promoter driven H2B-mCherry gene expression. […] The substitution of the high affinity peptide for low affinity peptide appears to increase the sensitivity of the sensor, consistent with the theory of competitive displacement kinetics.

γ-secretase = assay: Gamma secretase dependence of two sensors (H2B-mCherry reporter with inducer plus gamma secretase inhibitor); settings: dNS3-(EDVVCC) and BCL-xL-BH3(G22) sensors, inducer grazoprevir 3 μM or ABT-737 3 μM, DAPT 5 μM, Compound E 1 μM, 24 hours
Experimental: FIG. 4 Gamma secretase dependence of two distinct sensors. dNS3-(EDVVCC (SEQ ID NO: 57))-TMD-Gal4-VP64 and BCL-xL-BH3(G22)-TMD-Gal4-VP64 sensors were tested for gamma secretase dependence via the addition of gamma secretase inhibitors DAPT and Compound E (Cpd E). […] Upon addition of inducer and either gamma secretase inhibitor, H2B-mCherry signal is ablated. Images are taken 24 hours after transfection and drug addition. A fluorescent transfection marker is shown as a smaller corresponding image. Drug concentrations are as follows: NS3 inducer, grazoprevir 3 μM; BCL-xL inducer, ABT-737 3 μM; DAPT 5 μM; Compound E 1 μM. Scale bar 50 μm.
To probe into the mechanism of activation for the antiviral drug sensors and ABT-737 sensor, the inventors next inhibited γ-secretase with selective inhibitors, DAPT and compound E. Upon inhibition with either of these compounds, ICD driven activation of H2B-mCherry was inhibited (FIG. 4). Inhibition also occurred despite the presence of each associated sensor inducer, indicating γ-secretase plays a crucial role in MIMOsensor activation and is required for ICD release.

[2] = tested on: BCL-xL-BH3(G22)-Gal4-VP64 sensor; assay: BCL-xL-BH3(G22)-Gal4-VP64 sensor: ICD driven H2B-mCherry reporter expression
Experimental: FIG. 3 Activity of BCL-xL-BH3(G22)-Gal4-VP64 upon presence of BCL-xL inhibitors. BCL-xL serves as a ligand binding domain and BH3(G22) serves as an intramolecular peptide. […] H2B mCherry expression is visualized via microscopy. A fluorescent transfection marker is also shown to verify the presence of cells as a smaller corresponding image. Images were taken 48 hours after transfection and drug addition. Scale bar 50 μm.
as §1
The inventors next applied this methodology to a completely different LBD and peptide pair, BCL-xL and the BH3(G22) peptide, while keeping the ICD the same.

T1 sequence (P27958 1027-1208 S1165A): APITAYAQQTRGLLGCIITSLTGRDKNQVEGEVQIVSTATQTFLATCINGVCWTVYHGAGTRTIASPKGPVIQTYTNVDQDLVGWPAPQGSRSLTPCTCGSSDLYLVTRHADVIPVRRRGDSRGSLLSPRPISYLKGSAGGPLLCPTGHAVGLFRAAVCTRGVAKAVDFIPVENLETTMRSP

GELDELVYLLDGPGYDPIHS [CP5-46A-4D5E]
sensitivity of the sensor to antiviral drug, by intramolecular peptide [1]: intermediate sensitivity

C[C@H](NC(=O)Cc1cc(F)cc(F)c1)C(=O)N[C@H]1N=C(c2ccccc2)c2ccccc2N(C)C1=O [Compound E]
ICD driven activation of H2B-mCherry in presence of sensor inducer (γ-secretase): ablated
ICD driven activation of H2B-mCherry in presence of sensor inducer (γ-secretase; listed as compound E): inhibited

C[C@H](NC(=O)Cc1cc(F)cc(F)c1)C(=O)N[C@H](C(=O)OC(C)(C)C)c1ccccc1 [DAPT]
ICD driven activation of H2B-mCherry in presence of sensor inducer (γ-secretase): inhibited; also recorded: ablated

CN(C)CC[C@H](CSc1ccccc1)Nc1ccc(S(=O)(=O)NC(=O)c2ccc(N3CCN(Cc4ccccc4-c4ccc(Cl)cc4)CC3)cc2)cc1[N+](=O)[O-] [ABT-737]
ICD driven H2B-mCherry expression ([2]; BCL-xL-BH3(G22)-TMD-Gal4-VP64 sensor, ABT-737 3 μM, images 24 hours after transfection and drug addition): activates ICD driven H2B-mCherry expression
activation of H2B-mCherry (sensor response to drug) ([2]; microscopy, 48 hours after transfection and drug addition): concentration dependent activation

DEEMEEC
sensitivity of the sensor to antiviral drug, by intramolecular peptide [1]: high sensitivity
